US6750244B2, “Compounds active at a novel site on receptor-operated calcium channels useful for treatment of neurological disorders and diseases” (NPS Pharmaceuticals, Inc., priority 1993, dated 2004)
Values joined by “and” are separate entries in the source; they are usually repeats but may differ in a detail not shown here. Equal entries are not always repeated. Structures can show the parent of a compound that is named as a salt. Where two headings read alike, the source gives them in different places.

How the values were obtained:
[1] = target: NMDA receptor-ionophore complex (site labeled by [3H]MK-801); test: Inhibition of [3H]MK-801 binding in rat cortical/hippocampal washed membrane preparations; settings: read-out: IC50 (μM) vs. [3H]MK-801, rat cortical/hippocampal washed membranes
[2] = system: sound-induced seizures; test: Sound-induced seizures in Frings mice (reflex epilepsy); assay type: in vivo; settings: for ED50: Mus musculus, ip, Frings mice; for IC50, prevention of sound-induced seizures: intracerebroventricular (i.c.v.) injection
[3] = in vivo; settings: Frings, mouse, in vivo, ip
Description: (§1) In this assay, Frings and CF1 mice were injected with test compound and placed on a knurled rod which rotated at a speed of 6 rpm. The ability of the mice to maintain equilibrium for long periods of time was determined; those mice that were unable to maintain equilibrium on the rotorod for 1 min in each of 3 trials were considered impaired.

[4] = system: NMDA receptor; test: Inhibition of NMDA/glycine-induced increases in intracellular calcium in cultured rat cerebellar granule cells (RCGC); assay type: cell-based; settings: NMDA/glycine-induced increases in intracellular calcium, cultured rat cerebellar granule cells; read-out: IC50 (μM) vs. NMDA
[5] = system: central muscarinic cholinergic receptor; assay type: binding, rat
[6] = target: T1, serotonin uptake site (Rattus norvegicus, UniProt P31652); test: Serotonin uptake binding assay: [3H]citalopram binding to rat forebrain membranes
T1 construct: from tissue; host or cells: rat forebrain membranes (per the assay title)

[7] = target: T2, dopamine uptake site (Cavia porcellus, UniProt H0WCX4); test: Dopamine uptake binding assay: [3H]WIN-35,428 binding to guinea pig striatal membranes
T2 construct: from tissue; host or cells: guinea pig striatal membranes (per the assay title)

[8] = target: T3, norepinephrine uptake site (Rattus norvegicus, UniProt Q63380); test: Norepinephrine uptake binding assay: [3H]desipramine binding to rat cortical membranes
T3 construct: from tissue; host or cells: rat cortical membranes (per the assay title)

[9] = system: induction of LTP; set-up: species or system rat; settings: slices superfused 30-60 min
[10] = system: motor performance; test: Acute motor impairment (rotorod) in mice; settings: Frings mice; for TD50, acute motor impairment: i.c.v. injection
Description: as §1

[11] = system: mean arterial blood pressure; settings: for no effect on mean arterial blood pressure / no (significant) cardiovascular activity at doses up to: i.v.
[12] = system: behavior; test: Behavioral effects in conscious male NMRI mice
[13] = system: T4, L-type calcium channel; test: Inhibition of KCl depolarization-induced increases in intracellular calcium in cultured rat cerebellar granule cells; assay type: cell-based; settings: cultured rat cerebellar granule cells; read-out: L-type calcium channel: estimated IC50, KCl depolarization-induced increases in intracellular calcium
T4 construct: L-type calcium channel: estimated IC50, KCl depolarization-induced increases in intracellular calcium; other: cultured
Text: The ability of arylalkylamines to inhibit dihydropyridine-sensitive Ca^2+ channels was examined in cerebellar granule cells and a rat aortic smooth muscle cell line, A7r5 cells.

T2 sequence (H0WCX4 1-619): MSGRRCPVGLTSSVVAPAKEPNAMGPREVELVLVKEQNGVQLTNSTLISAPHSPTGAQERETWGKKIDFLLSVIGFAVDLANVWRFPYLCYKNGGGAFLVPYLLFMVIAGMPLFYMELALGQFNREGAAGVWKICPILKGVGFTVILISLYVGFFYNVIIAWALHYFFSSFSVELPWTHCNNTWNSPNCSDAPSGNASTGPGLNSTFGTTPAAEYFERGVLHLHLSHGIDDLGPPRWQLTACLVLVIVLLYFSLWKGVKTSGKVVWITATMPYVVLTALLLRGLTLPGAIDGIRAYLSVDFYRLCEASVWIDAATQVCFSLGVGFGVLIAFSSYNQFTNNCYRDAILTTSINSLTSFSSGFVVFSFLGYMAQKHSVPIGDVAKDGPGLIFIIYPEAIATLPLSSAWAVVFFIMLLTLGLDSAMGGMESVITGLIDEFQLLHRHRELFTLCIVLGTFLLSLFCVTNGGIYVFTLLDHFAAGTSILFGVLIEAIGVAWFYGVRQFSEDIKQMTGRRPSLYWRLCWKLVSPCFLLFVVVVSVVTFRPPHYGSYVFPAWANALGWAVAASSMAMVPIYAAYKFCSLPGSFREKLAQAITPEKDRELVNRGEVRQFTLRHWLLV
T3 sequence (Q63380 1-617): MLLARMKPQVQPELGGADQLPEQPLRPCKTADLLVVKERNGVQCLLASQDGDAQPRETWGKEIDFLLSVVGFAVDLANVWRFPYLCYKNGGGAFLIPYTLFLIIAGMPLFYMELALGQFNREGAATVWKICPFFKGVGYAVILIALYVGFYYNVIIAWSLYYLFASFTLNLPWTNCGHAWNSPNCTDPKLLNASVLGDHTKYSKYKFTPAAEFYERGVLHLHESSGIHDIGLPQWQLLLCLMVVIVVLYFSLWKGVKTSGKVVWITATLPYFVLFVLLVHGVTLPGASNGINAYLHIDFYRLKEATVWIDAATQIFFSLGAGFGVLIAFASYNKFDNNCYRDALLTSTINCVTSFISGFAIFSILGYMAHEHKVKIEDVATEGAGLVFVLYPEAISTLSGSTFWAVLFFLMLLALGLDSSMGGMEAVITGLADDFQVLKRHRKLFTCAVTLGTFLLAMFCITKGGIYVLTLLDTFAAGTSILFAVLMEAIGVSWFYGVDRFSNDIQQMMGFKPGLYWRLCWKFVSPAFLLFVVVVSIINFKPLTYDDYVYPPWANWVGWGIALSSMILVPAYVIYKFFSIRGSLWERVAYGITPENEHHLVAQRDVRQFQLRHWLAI
T1 sequence (P31652 whole entry): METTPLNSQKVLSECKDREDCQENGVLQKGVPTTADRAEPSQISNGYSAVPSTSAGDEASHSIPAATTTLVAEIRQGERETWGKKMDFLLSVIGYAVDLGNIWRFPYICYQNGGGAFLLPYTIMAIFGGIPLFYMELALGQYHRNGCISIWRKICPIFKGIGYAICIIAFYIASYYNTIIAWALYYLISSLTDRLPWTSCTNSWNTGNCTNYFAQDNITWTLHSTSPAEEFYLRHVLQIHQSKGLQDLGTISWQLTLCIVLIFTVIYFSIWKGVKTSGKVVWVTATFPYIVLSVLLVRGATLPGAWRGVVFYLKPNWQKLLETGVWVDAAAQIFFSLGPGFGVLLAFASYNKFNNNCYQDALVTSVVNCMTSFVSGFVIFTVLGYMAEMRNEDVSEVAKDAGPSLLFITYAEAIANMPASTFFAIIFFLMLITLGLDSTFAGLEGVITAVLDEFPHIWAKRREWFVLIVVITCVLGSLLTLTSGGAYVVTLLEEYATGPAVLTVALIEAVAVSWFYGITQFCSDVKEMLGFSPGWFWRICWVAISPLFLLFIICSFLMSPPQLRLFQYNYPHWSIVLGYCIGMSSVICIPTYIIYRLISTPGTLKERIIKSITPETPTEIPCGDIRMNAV

Molecule `CC(CN)C(c1cccc(F)c1)c1cccc(F)c1` (centres unmarked) [Compound 21, 3,3-bis(3-fluorophenyl)-2-methyl-1-propylamine] has an IC50 [1] of 0.457 µM, an ED50 [2] of 3.41 mg/kg and a TD50 [3] of 15.3 mg/kg. It also gave an IC50 [4] of 0.038 µM.
For `N[C@@H]1CCCC1C(c1cccc(F)c1)c1cccc(F)c1` (some centres unmarked) [Compound 64], the IC50 [1] was 0.851 µM, the “Central muscarinic cholinergic receptor: percent block of [3H]QNB binding” value ([5]; at 0.1 μM) was 11% at and the “Central muscarinic cholinergic receptor: percent block of [3H]QNB binding” value ([5]; at 10 μM) was 0.183% at. The “Monoamine uptake binding assays: serotonin uptake binding assay, percent block” value ([6]; at 0.1 μM) was 10^g29% at, the “Monoamine uptake binding assays: serotonin uptake binding assay, percent block” value ([6]; at 10 μM) was 0.1^h68% at and the “Monoamine uptake binding assays: dopamine uptake binding assay, percent block” value ([7]; at 0.1 μM) was 50% at. The “Monoamine uptake binding assays: dopamine uptake binding assay, percent block” value ([7]; at 10 μM) was 0.1^f99% at, the “Monoamine uptake binding assays: norepinephrine uptake binding assay, percent block” value ([8]; at 0.1 μM) was 8% at and the “Monoamine uptake binding assays: norepinephrine uptake binding assay, percent block” value ([8]; at 10 μM) was 0.1^g65% at. For the same molecule, the IC50 [4] was 0.309 µM.
In the case of `CC(C(O)c1ccc(O)cc1)N1CCC(Cc2ccccc2)CC1` (centres unmarked) [ifenprodil, reference compound], the “induction of LTP (p<0.05)” value [9] is reported as “significantly blocked”.
Molecule `NCCC(c1cccc(Cl)c1)c1cccc(Cl)c1` [Compound 31, 3,3-bis(3-chlorophenyl)-1-propylamine] has an IC50 [1] of 1.3 µM, an ED50 [2] of 6 mg/kg and a TD50 [3] of 10 to 20 mg/kg. The IC50 [4] was 0.052 µM.
Molecule `NCCC(Oc1cccc(F)c1)c1cccc(F)c1` (centres unmarked) [Compound 119] has an IC50 [1] of 0.087 µM, an ED50 [2] of 7 mg/kg and a TD50 [3] of 26.3 mg/kg. The IC50 [4] was 0.115 µM.
For `NC(CCCCCP(=O)(O)O)C(=O)O` (centres unmarked) [AP7, reference compound], the “induction of LTP (p<0.05)” value [9] was “significantly blocked”.
For `NCCC1c2ccccc2CCc2ccccc21` [Compound 156, 5-(2-Aminoethyl)-5H-10,11-dihydrodibenzo[a,d]cycloheptene hydrochloride], the IC50 ([1]; hydrochloride) was 0.09 µM and 0.081 µM, the ED50 [2] was 5 mg/kg and the TD50 [3] was 17.4 mg/kg. The IC50 [4] was 0.069 µM.
In the case of `NC(CCCP(=O)(O)O)C(=O)O` (centres unmarked) [AP5, reference compound], the “induction of LTP (p<0.05)” value [9] is reported as “significantly blocked” and the IC50 [4] is reported as 15 µM.
In the case of `NCCCOCCCCOCCCNC(=O)Cc1cccc2ccccc12` [Compound 14], the “IC50, prevention of sound-induced seizures” value [2] is reported as 13.9 µg, the “TD50, acute motor impairment” value [10] is reported as 30.8 µg and the IC50 [4] is reported as 8.8 µM.
In the case of `CCNCCCNCCCNCCCNC(=O)Cc1c[nH]c2ccc(F)cc12` [Compound 11], the “Drop in Mean Arterial Blood Pressure” value ([11]; 1 mg/kg i.v., rats) is reported as 20 mm Hg at 1, the “Drop in Mean Arterial Blood Pressure: duration” value ([11]; 1 mg/kg i.v., rats) is reported as “mg/kg i.v., 30 min” and the “duration of the hypotensive effect” value ([11]; systemic administration in rats) is reported as “approximately 30 min”. For the same molecule, the IC50 [4] was 4 µM.
In the case of `C[C@@H](N)CC(c1cccc(F)c1)c1cccc(F)c1` [Compound 51, 3,3-bis(3-fluorophenyl)-1-methyl-1-propylamine], the IC50 [1] is reported as 4.5 µM, the ED50 [2] is reported as 9.1 mg/kg and the “TD50 (motor impairment)” value ([10]; i.p.) is reported as 13.6 mg/kg. The IC50 [4] was 1.1 µM.
In the case of `NCCCOCCCCOCCCNC(=O)Cc1c[nH]c2ccc(F)cc12` [Compound 12], the IC50 [1] is reported as 98 µM, the “IC50, prevention of sound-induced seizures” value [2] is reported as 12.2 µg and the “no effect on mean arterial blood pressure / no (significant) cardiovascular activity at doses up to” value ([11]; rats) is reported as ≤ 37.3 µmol/kg. The “no effect on mean arterial blood pressure / no (significant) cardiovascular activity at doses up to” value ([11]; rats, listed as Compounds 12) was “up to 37.3 μmoles/kg”, the “TD50, acute motor impairment” value [10] was 30.2 µg and the IC50 [4] was 6 µM.
`NCCC(Oc1ccccc1F)c1cccc(F)c1` (centres unmarked) [Compound 122] gave an IC50 [1] of 0.342 µM, an ED50 [2] of 4.7 mg/kg and a TD50 [3] of 15.3 mg/kg. The IC50 [4] was 0.209 µM.
For `C[C@H](CN)C(c1cccc(F)c1)c1cccc(F)c1` [Compound 34, 3,3-bis(3-fluorophenyl)-2-methyl-1-propylamine], the IC50 [1] was 2.7 µM, the ED50 [2] was 22 mg/kg and the behavioral effects ([12]; 2 mg/kg i.p.) was “hyperthermia”. For the same molecule, the behavioral effects ([12]; 4 mg/kg i.p.) was “no behavioral effects”, the behavioral effects ([12]; 8 mg/kg i.p.) was “excitation, increased reactivity to touch, and hypothermia” and the behavioral effects ([12]; 64 mg/kg i.p.) was “convulsions”. For the same molecule, the behavioral effects ([12]; 16 and 32 mg/kg i.p.) was “excitation, Straub tail, tremor, jumping, stereotypies, hypothermia, and mydriasis”, the behavioral effects ([12]; 128 and 256 mg/kg i.p.) was “convulsions and death” and the “Central muscarinic cholinergic receptor: percent block of [3H]QNB binding” value ([5]; at 0.1 μM) was 25% at. For the same molecule, the “Central muscarinic cholinergic receptor: percent block of [3H]QNB binding” value ([5]; at 10 μM) was 0.199% at, the “Monoamine uptake binding assays: serotonin uptake binding assay, percent block” value ([6]; at 0.1 μM) was 10^g12% at and the “Monoamine uptake binding assays: serotonin uptake binding assay, percent block” value ([6]; at 10 μM) was 0.1^h79% at. For the same molecule, the “Monoamine uptake binding assays: dopamine uptake binding assay, percent block” value ([7]; at 0.1 μM) was 60% at, the “Monoamine uptake binding assays: dopamine uptake binding assay, percent block” value ([7]; at 10 μM) was 0.1^f99% at and the “Monoamine uptake binding assays: norepinephrine uptake binding assay, percent block” value ([8]; at 0.1 μM) was 10^f10% at. The “Monoamine uptake binding assays: norepinephrine uptake binding assay, percent block” value ([8]; at 10 μM) was 0.1^g64% at, the TD50 [3] was 10 to 15 mg/kg and the IC50 [4] was 0.426 µM.
In the case of `N[C@H]1CCCC1C(c1cccc(F)c1)c1cccc(F)c1` (some centres unmarked) [Compound 63], the IC50 [1] is reported as 0.245 µM, the “Central muscarinic cholinergic receptor: percent block of [3H]QNB binding” value ([5]; at 0.1 μM) is reported as 11% at and the “Central muscarinic cholinergic receptor: percent block of [3H]QNB binding” value ([5]; at 10 μM) is reported as 0.181% at. For the same molecule, the “Monoamine uptake binding assays: serotonin uptake binding assay, percent block” value ([6]; at 0.1 μM) was 10^g13% at, the “Monoamine uptake binding assays: serotonin uptake binding assay, percent block” value ([6]; at 10 μM) was 0.1^h85% at and the IC50 [13] was 1900 nM. For the same molecule, the “Monoamine uptake binding assays: dopamine uptake binding assay, percent block” value ([7]; at 0.1 μM) was 64% at, the “Monoamine uptake binding assays: dopamine uptake binding assay, percent block” value ([7]; at 10 μM) was 0.1^f98% at and the “Monoamine uptake binding assays: norepinephrine uptake binding assay, percent block” value ([8]; at 0.1 μM) was 10^f7% at. For the same molecule, the “Monoamine uptake binding assays: norepinephrine uptake binding assay, percent block” value ([8]; at 10 μM) was 0.1^g76% at and the IC50 [4] was 0.093 µM.
